Earlier results, collected in US20140037729A1, “COMBINATION OF AN OPIOID AGONIST AND AN OPIOID ANTAGONIST IN THE TREATMENT OF PARKINSON'S DISEASE” (Euro-Celtique, S.A., priority 2010, published 2014).

Tests used:
[1] = reported
parkinsonian patients = details: at higher doses; Berg et al. 1999
parkinsonian monkeys = details: in the long term; Samadi et al. 2005

In the case of `C=CCN1CC[C@]23c4c5ccc(O)c4O[C@H]2C(=O)CC[C@@]3(O)[C@H]1C5` [Naloxone, naloxone], the oral bioavailability [1] is given as at most 2%.

For `CN1CC[C@]23c4c5ccc(O)c4O[C@H]2[C@@H](O)C=C[C@H]3[C@H]1C5` [morphine], the akinesia (parkinsonian patients) is listed as “increase in akinesia”.

In the case of `O=C1CC[C@@]2(O)[C@H]3Cc4ccc(O)c5c4[C@@]2(CCN3CC2CC2)[C@H]1O5` [naltrexone], the dyskinesias (parkinsonian monkeys) is given as “increases dyskinesias”.
